In data set [1] the test system is ethanolic narcosis. In words: Ethanolic narcosis period in rats (righting reflex). The class given is in vivo, Hann.-Wistar rats. As to conditions: 1 h before ethanol i.p., n=10, control 100 ± 5.2. As to the method:
The animals were treated with various doses of the compounds of the formula (I) in groups of ten, orally, One hour after treatment the rats were treated with […]. of ethanol intraperitoneally (i.p.). The narcosis period of the animals was measured from the elapse of the righting reflex until a spontaneous correction of the body position. The average of the narcosis period and the percentage difference from the control were calculated. The control group was treated with placebo and […]. of ethanol.

Data set [2] can be described thus: Acute oral toxicity, 14 days observation. The settings on record: rat, in vivo, 500 mg/kg.
The test system of data set [3] is alcoholic intoxication, narcosis. As to conditions: in vivo; cited from earlier work.
The subject of data set [4] is ethanolic locomotoric hyperactivity. As to conditions: mice; in a dose range which decreases spontaneous locomotoric activity; cited from earlier work.
Data set [5] deals with spontaneous locomotoric activity. The settings on record: in the dose range that normalizes ethanolic hyperactivity; cited from earlier work.

One may read the mortality as the percentage killed. Low values mean a weak lethal effect, high ones a strong lethal effect. As to `CCC(O)(c1ccc(O)cc1)c1ccccc1C(F)(F)F` (stereo not drawn) [A, 2-trifluoromethyl-4'-hydroxy-α-ethyl-benzhydrol], the “Ethanolic narcosis period, x ± S.E.” value in data set [1] (5.0 mg./kg. orally) was determined as 69 ± 4.5; in data set [1] (20.0 mg./kg. orally) it was 52 ± 6.0; in data set [1] (40.0 mg./kg. orally), 39 ± 3.4. In addition, the mortality at 336 h in data set [2] came out at 0%.

Turning to `CCC(O)(c1ccc(O)cc1)c1cccc(Cl)c1` (stereo not drawn) [B, 3-chloro-4'-hydroxy-α-ethyl-benzhydrol], the “Ethanolic narcosis period, x ± S.E.” value in data set [1] (40.0 mg./kg. orally) was determined as 60 ± 7.5. Besides, the mortality at 336 h in data set [2] is 0%.

In the case of `N[C@@H](CS)C(=O)O` [L-cysteine, reference compound], in data set [3], the “Alcoholic intoxication, narcosis” value is reported as “shortened”. For the same compound, the figures for the “Ethanolic narcosis period, x ± S.E.” value in data set [1] (500.0 mg./kg.) and in data set [1] (1000.0 mg./kg.) were 63 ± 4.2 and 66 ± 5.9, respectively.

Consider `CC(N)(Cc1ccc(O)cc1)C(=O)O` (stereo not drawn) [α-Methyl-para-tyrosine], for which the Ethanolic locomotoric hyperactivity entry in data set [4] is recorded as “normalizes the ethanolic locomotoric hyperactivity”. Besides, the Spontaneous locomotoric activity result in data set [5] is “decreases the spontaneous locomotoric activity”.

The values above are taken from US4508926A, “4-Hydroxy-benzhydrols, process for their preparation and pharmaceutical compositions containing them” (Richter Gedeon Vegyeszeti Gyar Rt., priority 1982, dated 1985).
